# Target: T1, IifC (Acinetobacter baumannii, UniProt A0ABX6CFV1)
# T1 construct: gene styA; full length, 412 aa; pQE-80L (BamHI/PstI); expressed in E. coli CY15000 (tnaA mutant); purified by Q-Sepharose anion exchange
# T1 sequence (A0ABX6CFV1 1-412): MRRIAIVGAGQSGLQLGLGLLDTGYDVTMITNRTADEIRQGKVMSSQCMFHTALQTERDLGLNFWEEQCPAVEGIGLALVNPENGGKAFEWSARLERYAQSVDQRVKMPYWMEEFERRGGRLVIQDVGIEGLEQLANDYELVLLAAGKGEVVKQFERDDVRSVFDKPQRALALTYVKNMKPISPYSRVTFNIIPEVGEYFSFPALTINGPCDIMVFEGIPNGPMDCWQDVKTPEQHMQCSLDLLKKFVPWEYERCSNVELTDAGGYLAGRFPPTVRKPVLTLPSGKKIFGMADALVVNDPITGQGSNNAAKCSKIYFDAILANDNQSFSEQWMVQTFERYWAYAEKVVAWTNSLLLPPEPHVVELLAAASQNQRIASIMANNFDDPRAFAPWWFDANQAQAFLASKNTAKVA
# Test: FAD content of purified protein
# Type: binding
# Details: as purified from E. coli; non-covalently bound
structure (smiles),measurement,value
Cc1cc2nc3c(=O)[nH]c(=O)nc-3n(C[C@H](O)[C@H](O)[C@H](O)COP(=O)(O)OP(=O)(O)OC[C@H]3O[C@@H](n4cnc5c(N)ncnc54)[C@H](O)[C@@H]3O)c2cc1C [flavin adenine dinucleotide],mol FAD per mol protein,0.48 mol/mol

# From paper PMC4577076, “Detoxification of Indole by an Indole-Induced Flavoprotein Oxygenase from Acinetobacter baumannii” (PLoS ONE, 2015)
